Data as given in patent publication US8859463B2, “Method for controlling noxious organisms” (Sumitomo Chemical Company, Limited, priority 2009, dated 2014).

Columns and labels:
Format in all cases: in vivo
Aulacorthum solani = assay: Insecticidal effect (protective value), soybean pot test, Example 2; settings: thiamethoxam none; flumioxazin 50 g/ha; day 6 after release
Experimental: (§1) The evaluation of the insecticidal effect was performed by determining the life and death of the insects at the time of the investigation and calculating the protective value according to the following equation; Protective Value (%)=100×(1−T/C) wherein the symbols have the following meanings;
(§2) C: The number of insects at the time of observation in an untreated section: and
(§3) T: The number of insects at the time of observation in a treated section.
Thereafter, the test pot was placed in a greenhouse.

soybean = assay: Phytotoxicity to soybean, Example 6; settings: clothianidin none; flumioxazin 25 g/ha; day 11 after sowing
From the text: (§4) A soil was packed in a 1/5000a Wagner pot. The above soybean seeds were sown in the Wagner pot at a rate of two seeds per pot, and the seeds of Ipomoea hederacea were sown in the pot at a rate of three seeds per pot.
(§5) On day 11 after sowing of the seeds of soybean and Ipomoea hederacea, the herbicidal effect and phytotoxicity were examined.

Ipomoea hederacea [1] = assay: Herbicidal effect, soybean Wagner pot test, Example 6; settings: clothianidin none; flumioxazin 25 g/ha; day 11 after sowing; scale 0 to 100
From the text: as §4, §5

Spodoptera litura = assay: Insecticidal effect (protective value), corn pot test, Example 4; settings: clothianidin none, day 3 after release
Experimental: as §1, §2, §3
In addition, the clothianidin suspension was attached to the corn seeds in a similar manner except that it was used in an amount of 217.5 μL.
Thereafter, the test pot was placed in a greenhouse. On day 22 after corn sowing, 10 fourth-instar larvae of Spodoptera litura were released in the pot and the whole pot was then covered with a nylon cloth.
On day 3 after release of Spodoptera litura, the insecticidal effect was examined.

Senna obtusifolia = assay: Herbicidal activity, soybean pot test, Example 58; settings: strobilurin seed treatment none, twelve days after sowing
Experimental: (§6) In a plastic cup measuring 65 mm in inner diameter and 75 mm in height, 4.8 mg of a pyraclostrobin emulsifiable concentrate (emulsifiable concentrate containing 23.8% pyraclostrobin, manufactured by BASF under the trade name of Comet) and 12 soybean seeds were placed. The pyraclostrobin emulsifiable concentrate was adhered to the soybean seeds by shaking this plastic cup by hand. In the same manner, 13.2 mg of the pyraclostrobin emulsifiable concentrate was adhered to the soybean seeds. In the same manner, 4.8 mg of an azoxystrobin suspension (emulsifiable concentrate containing 22.9% azoxystrobin, manufactured by Syngenta under the trade name of Amistar) was adhered to the soybean seeds. In the same manner, 20.4 mg of an azoxystrobin suspension was adhered to the soybean seeds.
(§7) A water diluted solution of a trifloxystrobin granular wettable powder (2.6%) was prepared by adding 52 mg of a trifloxystrobin granular wettable powder (granular wettable powder containing 50% trifloxystrobin, manufactured by Bayer Crop Science Inc. under the trade name of Flint) to 1 mL of desalted water. 51.6 mg of this water diluted solution and 12 soybean seeds were placed in the plastic cup. The water diluted solution of trifloxystrobin was adhered to the soybean seeds by shaking this plastic cup by hand. In the same manner, 199.2 mg of the water diluted solution of trifloxystrobin was adhered to the soybean seeds.
(§8) A plastic pot measuring 194 mm in inner diameter and 176 mm in height was filled with the soil. In this pot, 2 soybean seeds were sown per 1 pot and 10 seeds of Ipomoea hederacea var. integriuscula and Senna obtusifolia were sown per 1 pot. On the day of sowing of the soybean seeds, after sowing the soybean seed, a flumioxazin granule (granule containing 0.25% flumioxazin, manufactured by Valent USA Corporation under the trade name of BroadStar) was uniformly scattered over a surface of the soil in the amount described in Tables 19 to 21 by hand.
(§9) Twelve days after sowing the seeds of soybean, Ipomoea hederacea var. integriuscula and Senna obtusifolia, herbicidal activity was examined.

[2] = system: Ipomoea hederacea var. integriuscula; assay: Herbicidal activity, soybean pot test, Example 58; settings: strobilurin seed treatment none, twelve days after sowing
Experimental: as §6, §7, §8, §9

Ipomoea hederacea [3] = assay: Herbicidal activity, corn pot test, Example 16; settings: azole seed treatment none, flumioxazin 50 g/ha, twelve days after sowing
Experimental: In a glass container measuring 60 mm in inner diameter and 20 mm in height, 8 μl of a prothioconazole emulsifiable concentrate (emulsifiable concentrate containing 25% prothioconazole, manufactured by Bayer Crop Science Inc. under the trade name of Proline) and 20 corn seeds were placed. The prothioconazole emulsifiable concentrate was adhered to the corn seeds by shaking this plastic cup by hand. In the same manner, 8 μl of a difenoconazole emulsifiable concentrate (emulsifiable concentrate containing 25% difenoconazole, manufactured by Syngenta under the trade name of Score) was adhered to 20 corn seeds. In the same manner, 50 mg of a tebuconazole suspension (suspension containing 20% tebuconazole, manufactured by Hokko Chemical Industry under the trade name of ONLY ONE Flowable) was adhered to 20 corn seeds.
A plastic pot measuring 194 mm in inner diameter and 176 mm in height was filled with the soil. In this pot, 3 corn seeds were sown per 1 pot and 10 seeds of Ipomoea hederacea were sown per 1 pot. […]

C#CCN1C(=O)COc2cc(F)c(N3C(=O)C4=C(CCCC4)C3=O)cc21 [Flumioxazin, flumioxazin]
Protective Value (Aulacorthum solani): 0% | Phytotoxicity to Soybean (soybean): No harm | Evaluation of Effect on Weeds (Ipomoea hederacea [1]): 25 | Protective Value (Spodoptera litura; flumioxazin 12.5 g/ha): 0% | Protective Value (Spodoptera litura; flumioxazin 50 g/ha): 5% | Herbicidal activity Senna obtusifolia (Senna obtusifolia; flumioxazin 25 g/ha): 20 | Herbicidal activity Senna obtusifolia (Senna obtusifolia; flumioxazin 100 g/ha): 45 | Herbicidal activity Ipomoea hederacea var. integriuscula ([2]; flumioxazin 25 g/ha): 25 | Herbicidal activity Ipomoea hederacea var. integriuscula ([2]; flumioxazin 100 g/ha): 85 | Herbicidal activity on Ipomoea hederacea (Ipomoea hederacea [3]): 88
